The text below walks through data of patent US20240343692A1 (priority 2021, published 2024).

Where two headings read alike, the source gives them in different places. Marks after values point to notes of the source that are not given here.

For test [1], the target named is T1, Serotonin 5-HT2A (Homo sapiens, UniProt P28223). To be noted: data from ref. 36; read-out: activation potency EC50, Serotonin 5-HT2A; cited from earlier work.
Test [2] addresses T2, Sigma-1 (Homo sapiens, UniProt Q99720).
In test [3] the target is T3, Serotonin 5-HT1A (Homo sapiens, UniProt P08908).
T3 sequence (P08908 1-422): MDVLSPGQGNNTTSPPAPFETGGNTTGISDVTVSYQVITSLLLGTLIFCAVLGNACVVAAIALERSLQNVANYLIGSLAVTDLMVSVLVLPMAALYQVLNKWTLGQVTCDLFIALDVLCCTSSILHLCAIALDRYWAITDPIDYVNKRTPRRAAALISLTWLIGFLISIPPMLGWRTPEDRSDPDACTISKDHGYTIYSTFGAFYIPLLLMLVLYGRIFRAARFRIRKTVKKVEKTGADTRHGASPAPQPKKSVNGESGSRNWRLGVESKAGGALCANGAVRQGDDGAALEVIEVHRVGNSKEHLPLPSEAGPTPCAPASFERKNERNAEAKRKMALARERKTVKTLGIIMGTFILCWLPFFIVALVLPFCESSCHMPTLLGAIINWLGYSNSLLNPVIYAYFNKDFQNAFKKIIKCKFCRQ
To be noted: read-out: inhibition constants Ki, Serotonin 5-HT1A; data from ref. 36; cited from earlier work.

For test [4], the target named is T4, Nicotinic Acetylcholine α4β2 (Homo sapiens, UniProt P17787+P43681). Particulars: 10 μM; data from ref. 34; cited from earlier work.
T4 sequence (P43681 29-627 limits assumed): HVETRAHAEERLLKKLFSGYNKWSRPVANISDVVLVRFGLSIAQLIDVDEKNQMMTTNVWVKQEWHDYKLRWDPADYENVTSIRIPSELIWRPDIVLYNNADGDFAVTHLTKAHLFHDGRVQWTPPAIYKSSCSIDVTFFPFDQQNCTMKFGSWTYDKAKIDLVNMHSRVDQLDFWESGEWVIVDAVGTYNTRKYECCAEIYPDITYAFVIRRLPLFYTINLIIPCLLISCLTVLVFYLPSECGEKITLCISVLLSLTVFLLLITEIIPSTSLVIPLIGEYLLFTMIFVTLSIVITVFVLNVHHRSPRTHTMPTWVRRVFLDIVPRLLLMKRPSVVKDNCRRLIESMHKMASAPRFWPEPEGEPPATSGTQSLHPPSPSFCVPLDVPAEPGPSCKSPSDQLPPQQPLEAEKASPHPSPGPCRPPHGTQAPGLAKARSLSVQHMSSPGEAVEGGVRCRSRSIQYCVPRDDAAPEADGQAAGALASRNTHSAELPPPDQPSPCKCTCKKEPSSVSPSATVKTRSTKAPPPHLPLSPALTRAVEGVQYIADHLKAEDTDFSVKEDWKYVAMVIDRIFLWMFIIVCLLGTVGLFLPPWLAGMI
T4 sequence (P17787 26-502): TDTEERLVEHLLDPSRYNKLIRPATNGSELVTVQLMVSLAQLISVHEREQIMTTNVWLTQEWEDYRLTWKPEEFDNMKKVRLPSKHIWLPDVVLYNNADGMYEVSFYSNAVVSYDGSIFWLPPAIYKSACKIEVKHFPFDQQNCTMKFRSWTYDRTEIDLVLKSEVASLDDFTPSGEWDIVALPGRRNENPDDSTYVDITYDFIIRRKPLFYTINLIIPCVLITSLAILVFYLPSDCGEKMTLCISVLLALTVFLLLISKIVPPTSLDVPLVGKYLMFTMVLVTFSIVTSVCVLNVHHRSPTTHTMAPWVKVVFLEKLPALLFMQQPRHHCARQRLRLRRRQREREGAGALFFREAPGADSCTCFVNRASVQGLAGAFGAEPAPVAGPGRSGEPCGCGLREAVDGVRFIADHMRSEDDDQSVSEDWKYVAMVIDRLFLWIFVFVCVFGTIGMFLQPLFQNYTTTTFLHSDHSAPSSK
The target in test [5] is T5, Muscarinic M5 (Homo sapiens, UniProt P08912).
T5 sequence (P08912 1-532): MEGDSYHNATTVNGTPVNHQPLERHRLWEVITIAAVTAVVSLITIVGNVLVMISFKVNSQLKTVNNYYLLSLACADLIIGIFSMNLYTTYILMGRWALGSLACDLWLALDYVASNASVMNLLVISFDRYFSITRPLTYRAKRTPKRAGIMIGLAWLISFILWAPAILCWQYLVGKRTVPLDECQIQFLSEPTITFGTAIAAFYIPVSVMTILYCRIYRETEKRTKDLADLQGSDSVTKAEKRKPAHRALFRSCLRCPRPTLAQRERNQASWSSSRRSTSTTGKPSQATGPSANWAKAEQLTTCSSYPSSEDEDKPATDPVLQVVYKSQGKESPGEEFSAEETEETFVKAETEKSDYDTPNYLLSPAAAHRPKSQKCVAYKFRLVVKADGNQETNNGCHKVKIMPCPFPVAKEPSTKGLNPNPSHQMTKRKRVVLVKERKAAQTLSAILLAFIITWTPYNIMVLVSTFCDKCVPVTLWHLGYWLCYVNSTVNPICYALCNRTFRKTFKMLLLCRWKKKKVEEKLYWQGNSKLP
To be noted: 10 μM; data from ref. 34; cited from earlier work.

Test [6] addresses T6, Muscarinic M2 (Homo sapiens, UniProt P08172).
T6 sequence (P08172 1-466): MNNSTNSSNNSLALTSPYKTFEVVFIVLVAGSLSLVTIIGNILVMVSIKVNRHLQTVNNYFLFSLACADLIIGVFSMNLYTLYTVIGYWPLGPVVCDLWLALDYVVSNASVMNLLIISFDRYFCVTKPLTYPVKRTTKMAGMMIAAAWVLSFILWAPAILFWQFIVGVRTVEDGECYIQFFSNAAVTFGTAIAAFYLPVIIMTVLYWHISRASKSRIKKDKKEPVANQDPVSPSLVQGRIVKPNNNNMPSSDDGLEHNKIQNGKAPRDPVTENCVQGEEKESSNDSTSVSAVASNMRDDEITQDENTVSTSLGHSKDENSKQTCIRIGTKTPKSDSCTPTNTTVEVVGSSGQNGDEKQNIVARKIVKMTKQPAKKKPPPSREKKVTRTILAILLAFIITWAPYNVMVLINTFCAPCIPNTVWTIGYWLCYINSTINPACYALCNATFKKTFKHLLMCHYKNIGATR
To be noted: 10 μM; data from ref. 34; cited from earlier work.

Test [7] addresses T7, Dopamine D1 (Homo sapiens, UniProt P21728). Particulars: 10 μM; data from ref. 34; cited from earlier work.
For test [8], the target named is T1, Serotonin 5-HT2A. To be noted: 10 μM; data from ref. 34; cited from earlier work.
Test [9] concerns the target T8, Opiate κ (Homo sapiens, UniProt P41145). Particulars: 10 μM; data from ref. 34; cited from earlier work.
Test [10] deals with T9, Dopamine D2L (Homo sapiens, UniProt P14416). Particulars: 10 μM; data from ref. 34; cited from earlier work.
T9 sequence (P14416 whole entry): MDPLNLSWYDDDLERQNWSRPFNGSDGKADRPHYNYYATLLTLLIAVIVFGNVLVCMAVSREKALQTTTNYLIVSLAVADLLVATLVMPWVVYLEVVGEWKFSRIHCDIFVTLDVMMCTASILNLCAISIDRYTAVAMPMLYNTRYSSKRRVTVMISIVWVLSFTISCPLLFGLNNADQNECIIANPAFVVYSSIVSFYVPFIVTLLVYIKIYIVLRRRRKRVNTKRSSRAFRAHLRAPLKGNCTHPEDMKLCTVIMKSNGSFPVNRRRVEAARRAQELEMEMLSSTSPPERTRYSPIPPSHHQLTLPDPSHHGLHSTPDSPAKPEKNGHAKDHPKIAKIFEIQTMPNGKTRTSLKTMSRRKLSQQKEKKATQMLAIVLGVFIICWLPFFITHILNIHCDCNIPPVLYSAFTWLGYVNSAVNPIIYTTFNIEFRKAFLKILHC
Test [11] concerns GABAA. Particulars: 10 μM; rat receptor data; data from ref. 34; cited from earlier work.
Test [12] addresses T10, Dopamine D3 (Homo sapiens, UniProt P35462). To be noted: 10 μM; data from ref. 34; cited from earlier work.
Test [13] relates to Adrenergic α1. Particulars: 10 μM; rat receptor data; data from ref. 35; cited from earlier work.
Another test deals with T11, Orexin OX1 (Homo sapiens, UniProt O43613).
T11 sequence (O43613 1-425): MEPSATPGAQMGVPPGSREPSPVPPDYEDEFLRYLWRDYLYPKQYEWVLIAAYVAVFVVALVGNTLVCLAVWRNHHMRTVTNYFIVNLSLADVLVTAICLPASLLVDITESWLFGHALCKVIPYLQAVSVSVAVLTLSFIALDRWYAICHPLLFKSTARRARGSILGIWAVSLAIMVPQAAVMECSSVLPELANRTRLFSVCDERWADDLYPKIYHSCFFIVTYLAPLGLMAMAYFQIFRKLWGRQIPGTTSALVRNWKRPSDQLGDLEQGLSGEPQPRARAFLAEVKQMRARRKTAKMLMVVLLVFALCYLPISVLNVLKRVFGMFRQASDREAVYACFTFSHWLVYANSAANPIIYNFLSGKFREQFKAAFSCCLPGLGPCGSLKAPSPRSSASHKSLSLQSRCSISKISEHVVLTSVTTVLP
Kind of test: CNS receptor radioligand binding, Orexin OX1. Particulars: 10 μM.

The target in test [14] is T2, Sigma-1. Kind of test: Inhibition constant, Sigma-1. Type of test: binding. To be noted: human receptor; 5-point concentration response curves; duplicate; read-out: inhibition constants Ki, Sigma-1.
The test system of test [15] is Adrenergic α1. Nature of the test: CNS receptor radioligand binding, Adrenergic α1. To be noted: 10 μM; rat receptor data.
The target of test [16] is T3, Serotonin 5-HT1A. Kind of test: Receptor activation potency, Serotonin 5-HT1A. Format: biochemical. To be noted: 5-point concentration response curves, duplicate.
Test [17] deals with GABAA. Kind of test: CNS receptor radioligand binding, GABAA. To be noted: 10 μM; rat receptor data.
Test [18] deals with T5, Muscarinic M5. Nature of the test: CNS receptor radioligand binding, Muscarinic M5. To be noted: 10 μM.
The target of the next test is Serotonin 5-HT2B (Homo sapiens, UniProt P41595). Nature of the test: Receptor activation potency, Serotonin 5-HT2B. Particulars: 5-point concentration response curves, duplicate. Format: biochemical.
Serotonin 5-HT2B, sequence (P41595 whole entry): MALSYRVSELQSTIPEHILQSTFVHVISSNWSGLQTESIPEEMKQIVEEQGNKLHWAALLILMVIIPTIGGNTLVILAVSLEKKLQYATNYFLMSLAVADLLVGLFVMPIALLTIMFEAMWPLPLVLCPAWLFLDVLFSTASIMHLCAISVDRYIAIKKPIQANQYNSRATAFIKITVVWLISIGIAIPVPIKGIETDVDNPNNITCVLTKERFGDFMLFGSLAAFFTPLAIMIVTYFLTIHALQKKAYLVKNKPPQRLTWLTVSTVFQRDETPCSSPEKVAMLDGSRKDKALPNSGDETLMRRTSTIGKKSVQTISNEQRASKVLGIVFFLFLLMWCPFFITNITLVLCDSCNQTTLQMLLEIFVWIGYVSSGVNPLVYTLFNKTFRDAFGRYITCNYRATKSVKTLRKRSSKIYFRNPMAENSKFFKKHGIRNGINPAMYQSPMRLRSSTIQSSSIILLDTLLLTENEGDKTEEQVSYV
For the next test, the target named is Histamine H1 (Homo sapiens, UniProt P35367). Kind of test: CNS receptor radioligand binding, Histamine H1 (human). To be noted: 10 μM.
Histamine H1, sequence (P35367 whole entry): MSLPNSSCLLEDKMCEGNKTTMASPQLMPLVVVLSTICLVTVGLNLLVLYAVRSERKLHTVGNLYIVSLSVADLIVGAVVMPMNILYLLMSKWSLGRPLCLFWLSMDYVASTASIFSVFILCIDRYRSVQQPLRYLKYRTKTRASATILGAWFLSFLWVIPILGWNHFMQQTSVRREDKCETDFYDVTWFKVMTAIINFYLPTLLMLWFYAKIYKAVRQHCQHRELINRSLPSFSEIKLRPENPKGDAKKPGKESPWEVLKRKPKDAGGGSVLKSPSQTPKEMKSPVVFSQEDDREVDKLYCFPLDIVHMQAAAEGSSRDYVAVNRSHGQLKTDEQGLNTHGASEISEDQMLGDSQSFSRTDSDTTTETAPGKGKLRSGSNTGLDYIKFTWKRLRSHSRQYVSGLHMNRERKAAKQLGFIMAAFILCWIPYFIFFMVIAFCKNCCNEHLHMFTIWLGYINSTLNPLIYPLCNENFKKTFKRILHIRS
The target in test [19] is T4, Nicotinic Acetylcholine α4β2. Nature of the test: CNS receptor radioligand binding, Nicotinic Acetylcholine α4β2. To be noted: 10 μM.
The target in test [20] is T10, Dopamine D3. Nature of the test: CNS receptor radioligand binding, Dopamine D3.
The target in test [21] is T3, Serotonin 5-HT1A. Nature of the test: CNS receptor radioligand binding, Serotonin 5-HT1A.
The target of test [22] is T6, Muscarinic M2. Kind of test: CNS receptor radioligand binding, Muscarinic M2. Particulars: 10 μM.
For test [23], the target named is T7, Dopamine D1. Nature of the test: CNS receptor radioligand binding, Dopamine D1. Particulars: 10 μM.
The target of test [24] is T1, Serotonin 5-HT2A. Nature of the test: CNS receptor radioligand binding, Serotonin 5-HT2A.
Test [25] has as its target T8, Opiate κ. Kind of test: CNS receptor radioligand binding, Opiate κ. To be noted: 10 μM.
For another test, the target named is T12, Serotonin 5-HT2C (Homo sapiens, UniProt P28335).
T12 sequence (P28335 33-458): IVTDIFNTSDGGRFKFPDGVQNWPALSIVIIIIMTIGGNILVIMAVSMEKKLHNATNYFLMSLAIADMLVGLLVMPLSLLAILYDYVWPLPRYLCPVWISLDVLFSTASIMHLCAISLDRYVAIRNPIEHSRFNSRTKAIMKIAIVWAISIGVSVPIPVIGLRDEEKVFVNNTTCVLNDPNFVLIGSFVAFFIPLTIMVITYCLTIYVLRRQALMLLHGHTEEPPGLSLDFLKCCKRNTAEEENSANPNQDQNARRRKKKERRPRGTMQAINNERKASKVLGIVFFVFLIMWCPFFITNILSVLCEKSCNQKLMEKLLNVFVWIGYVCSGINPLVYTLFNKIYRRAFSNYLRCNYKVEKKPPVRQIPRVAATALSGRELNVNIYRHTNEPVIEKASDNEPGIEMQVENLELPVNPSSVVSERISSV
Kind of test: Receptor activation potency, Serotonin 5-HT2C. Format: biochemical. Particulars: 5-point concentration response curves, duplicate.

The target of test [26] is T9, Dopamine D2L. Nature of the test: CNS receptor radioligand binding, Dopamine D2L. Particulars: 10 μM.
Test [27] deals with T1, Serotonin 5-HT2A. Nature of the test: Receptor activation potency, Serotonin 5-HT2A. Format: biochemical. To be noted: 5-point concentration response curves, duplicate.

T1 sequence (P28223 whole entry, looked up): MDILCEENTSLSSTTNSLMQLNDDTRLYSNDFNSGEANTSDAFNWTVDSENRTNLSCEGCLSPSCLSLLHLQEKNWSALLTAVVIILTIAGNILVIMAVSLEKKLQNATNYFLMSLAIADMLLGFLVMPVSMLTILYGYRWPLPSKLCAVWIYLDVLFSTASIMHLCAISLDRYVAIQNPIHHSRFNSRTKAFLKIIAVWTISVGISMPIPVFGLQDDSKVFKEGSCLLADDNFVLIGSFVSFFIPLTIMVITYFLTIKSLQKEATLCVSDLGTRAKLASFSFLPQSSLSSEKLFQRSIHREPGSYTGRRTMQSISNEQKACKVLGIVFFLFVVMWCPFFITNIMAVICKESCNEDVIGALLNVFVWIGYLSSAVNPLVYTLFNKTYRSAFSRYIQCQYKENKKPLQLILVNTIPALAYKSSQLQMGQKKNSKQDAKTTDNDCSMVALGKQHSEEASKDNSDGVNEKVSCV
T2 sequence (Q99720 whole entry): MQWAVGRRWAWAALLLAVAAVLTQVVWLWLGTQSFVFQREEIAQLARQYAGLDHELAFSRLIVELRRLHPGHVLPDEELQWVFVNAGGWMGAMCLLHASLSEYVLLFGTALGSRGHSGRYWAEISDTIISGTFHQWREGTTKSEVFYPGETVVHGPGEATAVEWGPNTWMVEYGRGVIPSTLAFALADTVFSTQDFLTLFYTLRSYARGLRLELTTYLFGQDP
T10 sequence (P35462 whole entry): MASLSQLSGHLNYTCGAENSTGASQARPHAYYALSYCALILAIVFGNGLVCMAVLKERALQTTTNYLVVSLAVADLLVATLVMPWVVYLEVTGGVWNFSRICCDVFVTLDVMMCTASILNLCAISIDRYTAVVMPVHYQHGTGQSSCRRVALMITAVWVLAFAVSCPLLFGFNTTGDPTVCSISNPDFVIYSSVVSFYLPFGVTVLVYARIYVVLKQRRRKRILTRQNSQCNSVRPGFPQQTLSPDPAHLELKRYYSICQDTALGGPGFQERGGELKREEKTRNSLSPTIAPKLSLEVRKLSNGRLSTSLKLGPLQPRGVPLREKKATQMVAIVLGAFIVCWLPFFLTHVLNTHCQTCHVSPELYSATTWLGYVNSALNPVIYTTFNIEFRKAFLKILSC
T7 sequence (P21728 whole entry): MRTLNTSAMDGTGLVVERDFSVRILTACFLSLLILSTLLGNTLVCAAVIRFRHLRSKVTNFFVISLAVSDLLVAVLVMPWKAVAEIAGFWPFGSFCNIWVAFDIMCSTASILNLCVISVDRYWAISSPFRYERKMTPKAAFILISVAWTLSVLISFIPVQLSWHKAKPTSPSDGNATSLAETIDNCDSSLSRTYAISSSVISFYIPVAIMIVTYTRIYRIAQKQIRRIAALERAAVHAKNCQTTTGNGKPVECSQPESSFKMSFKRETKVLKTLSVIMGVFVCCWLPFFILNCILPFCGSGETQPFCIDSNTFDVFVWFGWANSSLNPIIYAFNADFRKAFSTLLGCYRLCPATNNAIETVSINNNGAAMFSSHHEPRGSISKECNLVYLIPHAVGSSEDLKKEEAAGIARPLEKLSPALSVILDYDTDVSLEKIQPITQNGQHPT
T8 sequence (P41145 whole entry): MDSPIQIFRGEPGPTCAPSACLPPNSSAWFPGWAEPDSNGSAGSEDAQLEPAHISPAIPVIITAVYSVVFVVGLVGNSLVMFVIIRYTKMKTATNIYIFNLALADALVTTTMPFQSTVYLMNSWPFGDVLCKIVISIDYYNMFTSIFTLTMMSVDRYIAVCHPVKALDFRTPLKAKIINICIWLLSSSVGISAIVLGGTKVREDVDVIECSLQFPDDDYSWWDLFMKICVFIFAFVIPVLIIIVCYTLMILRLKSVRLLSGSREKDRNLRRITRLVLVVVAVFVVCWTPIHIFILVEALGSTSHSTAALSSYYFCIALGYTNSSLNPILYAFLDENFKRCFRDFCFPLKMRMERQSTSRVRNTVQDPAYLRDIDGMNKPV

With `CN(C)CCc1c[nH]c2ccccc12` [DMT], the EC50 at Serotonin 5-HT2A [1] is 0.076 µM. The Ki on Sigma-1 [2] (data from ref. 37; read-out: inhibition constants Ki, Sigma-1; cited from earlier work) is 5.2 µM.

As to `CN(C)CCc1c[nH]c2cccc(O)c12` [Psilocin], the Ki was 0.123 µM at Serotonin 5-HT1A [3] and over 10 µM on Sigma-1 [2] (read-out: inhibition constants Ki, Sigma-1; data from ref. 37; cited from earlier work).

`CCN(CC)C(=O)[C@@H]1C=C2c3cccc4[nH]cc(c34)C[C@H]2N(C)C1` [D-LSD, D-lysergic acid diethylamide]: the “Percent Inhibition of Specific Binding of a Radioligand Standard, Nicotinic Acetylcholine α4β2” value in test [4] was 0 % inh. For the same compound, the “Percent Inhibition of Specific Binding of a Radioligand Standard, Muscarinic M5” value at Muscarinic M5 [5] is 15 % inh. The “Percent Inhibition of Specific Binding of a Radioligand Standard, Muscarinic M2” value on Muscarinic M2 [6] is listed as 2 % inh. Besides, the “Percent Inhibition of Specific Binding of a Radioligand Standard, Dopamine D1” value at Dopamine D1 [7] is given as 93 % inh. Further, the “Percent Inhibition of Specific Binding of a Radioligand Standard, Serotonin 5-HT2A” value at Serotonin 5-HT2A [8] is reported as 93 % inh. The “Percent Inhibition of Specific Binding of a Radioligand Standard, Opiate κ” value at Opiate κ [9] is listed as 29 % inh. Further, on Dopamine D2L [10], the “Percent Inhibition of Specific Binding of a Radioligand Standard, Dopamine D2L” value is 85 % inh. In addition, the “Percent Inhibition of Specific Binding of a Radioligand Standard, GABAA” value with GABAA [11] was 0 % inh. Further, at Dopamine D3 [12], the “Percent Inhibition of Specific Binding of a Radioligand Standard, Dopamine D3” value is listed as 78 % inh. For the same compound, the “Percent Inhibition of Specific Binding of a Radioligand Standard, Adrenergic α1” value with Adrenergic α1 [13] is on record as 100^d % inh.

On to (−)-Cycloclavine, for which the “Percent Inhibition of Specific Binding of a Radioligand Standard, Orexin OX1” value on Orexin OX1 turned out to be 6 % inh. In addition, the Ki on Sigma-1 [14] was 8.3 µM. Moreover, the “Percent Inhibition of Specific Binding of a Radioligand Standard, Adrenergic α1” value in the test on Adrenergic α1 [15] was 59 % inh. Besides, the EC50 at Serotonin 5-HT1A [16] was about 5 µM; on Serotonin 5-HT2B it was over 20 µM; at Serotonin 5-HT2C it was 3.2 µM; on Serotonin 5-HT2A [27], over 50 µM. Moreover, in the test with GABAA [17], the “Percent Inhibition of Specific Binding of a Radioligand Standard, GABAA” value is 0 % inh. Further, at Muscarinic M5 [18], the “Percent Inhibition of Specific Binding of a Radioligand Standard, Muscarinic M5” value stood at 15 % inh. Moreover, the “Percent Inhibition of Specific Binding of a Radioligand Standard, Histamine H1” value at Histamine H1 is 27 % inh. In test [19], the “Percent Inhibition of Specific Binding of a Radioligand Standard, Nicotinic Acetylcholine α4β2” value was found to be 11 % inh. In addition, the “Percent Inhibition of Specific Binding of a Radioligand Standard, Dopamine D3” value on Dopamine D3 [20] (1 μM) is 32 % inh; at Dopamine D3 [20] (10 μM) it was 64 % inh. The “Percent Inhibition of Specific Binding of a Radioligand Standard, Serotonin 5-HT1A” value at Serotonin 5-HT1A [21] (1 μM) is recorded as 73 % inh; on Serotonin 5-HT1A [21] (10 μM), 91 % inh. For the same compound, at Muscarinic M2 [22], the “Percent Inhibition of Specific Binding of a Radioligand Standard, Muscarinic M2” value came out at 0 % inh. Also, at Dopamine D1 [23], the “Percent Inhibition of Specific Binding of a Radioligand Standard, Dopamine D1” value came out at 30 % inh. Besides, the “Percent Inhibition of Specific Binding of a Radioligand Standard, Serotonin 5-HT2A” value stood at 51 % inh on Serotonin 5-HT2A [24] (1 μM) and 89 % inh at Serotonin 5-HT2A [24] (10 μM). Moreover, the “Percent Inhibition of Specific Binding of a Radioligand Standard, Opiate κ” value on Opiate κ [25] came to 75 % inh. On Dopamine D2L [26], the “Percent Inhibition of Specific Binding of a Radioligand Standard, Dopamine D2L” value is 14 % inh.

The term EC50 denotes the concentration at which the effect is half-maximal. As usually defined, the Ki is a measure of affinity in units of concentration, obtained from inhibition or displacement.
